From patent US9802899B2, “Heterocyclic compounds as pesticides” (BAYER CROPSCIENCE AG, priority 2012, dated 2017) come the findings set out here.

Molecules are shown by their SMILES.

Tested on in one data set: not listed separately
In words: Determination of the log P values by HPLC (formic acid method). It is filed as physicochemical. The following applies: reversed-phase HPLC column (C 18), reversed-phase column (C 18), acidic range (pH 3.4), 55° C. Here is the method: 1) Description of Method for Determination of the Log P Values (Formic Acid Method)
Eluents for determination in the acidic range (pH 3.4):
Eluent A: acetonitrile+1 ml of formic acid/liter. Eluent B: water+0.9 ml of formic acid/liter.
The lambda max values were determined in the maxima of the chromatographic signals using the UV spectra from 200 nm to 400 nm.
In general, chromatographic logP refers to a lipophilicity value derived from retention on a column. Low values mean lower lipophilicity, high ones higher lipophilicity. As for `Nc1nn(-c2ccccc2Cl)cc1Br` [4-Bromo-1-(2-chlorophenyl)-1H-pyrazole-3-amine], the chromatographic logP was found to be 2.23.

For `Nc1ccn(-c2ncc(F)cc2Cl)n1` [1-(3-Chloro-5-fluoropyridin-2-yl)-1H-pyrazole-3-amine], the chromatographic logP is 0.98.

For `N#Cc1ccc(Cl)nc1-n1ccc(NC(=O)c2ccccc2C(F)(F)F)n1` [Compound I-1-607, N-[1-(6-Chloro-3-cyanopyridin-2-yl)-1H-pyrazol-3-yl]-2-(trifluoromethyl)benzamide], the chromatographic logP amounted to 3.14.

In turn, `Nc1ccn(-c2nccc(I)c2F)n1` [1-(3-Fluoro-4-iodopyridin-2-yl)-1H-pyrazole-3-amine] returned a chromatographic logP of 1.38.

Regarding `Nc1nn(-c2ccccc2Cl)c2ccccc12` [1-(2-Chlorophenyl)-1H-indazole-3-amine], the chromatographic logP was determined as 2.32.

As to `Nc1ccn(-c2c(Cl)cccc2Cl)n1` [1-(2,6-Dichlorophenyl)-1H-pyrazole-3-amine], the chromatographic logP was 1.47.

Turning to `Cc1cccc(C)c1-n1ccc(N)n1` [1-(2,6-Dimethylphenyl)-1H-pyrazole-3-amine], the chromatographic logP worked out at 0.62.

As to `Nc1cnn(-c2ncc(Cl)cc2Cl)n1` [2-(3,5-Dichloropyridin-2-yl)-2H-1,2,3-triazole-4-amine], the chromatographic logP amounted to 1.38.

The data set is the same for the next values; noted with them: reversed-phase column (C 18), acidic range (pH 3.4), 55° C.
Usually log P stands for the decadic logarithm of the partition coefficient of the neutral form, usually between octanol and water. Low values mean lower lipophilicity, high ones higher lipophilicity. `O=C(Nc1ccn(-c2ccc(F)cc2F)n1)c1ccccc1Cl` [Compound I-1-211]: the “log P” value was 2.91.

Consider `CCN(C(=O)c1ccccc1Cl)c1ccn(-c2ccccc2Cl)n1` [Compound I-1-22], for which the “log P” value was 3.41.

As for `O=C(Nc1cnn(-c2ccccc2Br)n1)c1ccccc1Cl` [Compound I-2-7], the “log P” value was found to be 2.93.

On to `O=C(Nc1ccn(-c2cccc(Cl)c2F)n1)c1ccccc1C(F)(F)F` [Compound I-1-555], for which the “log P” value was determined as 3.37.

With `O=C(Nc1ccn(-c2c(Cl)cccc2Cl)n1)c1ccccc1Cl` [Compound I-1-121], the “log P” value is 2.84.

With `O=C(c1ccccc1Cl)N(CC1CC1)c1ccn(-c2ccccc2Cl)n1` [Compound I-1-24], the “log P” value was 3.85.

As for `COc1cccc(Cl)c1C(=O)Nc1ccn(-c2c(F)cccc2F)n1` [Compound I-1-271], the log partition coefficient (log P) stood at 2.47.

Regarding `O=C(Nc1ccn(-c2c(F)cccc2F)n1)c1ccccc1Cl` [Compound I-1-81], the “log P” value came out at 2.55.

Consider `N#Cc1ccccc1-n1ccc(NC(=O)c2ccccc2C(F)(F)F)n1` [Compound I-1-9], for which the “log P” value is reported as 2.55.

For `O=C(Nc1ccn(-c2ncc(C(F)(F)F)cc2Cl)n1)c1ccccc1I` [Compound I-1-421], the lipophilicity (log P) is listed as 3.43.

Regarding `CCOc1cccc(F)c1-n1ccc(NC(=O)c2ccccc2Br)n1` [Compound I-1-399], the “log P” value is 2.87.

For the compound `O=C(Nc1cnn(-c2ncccc2F)n1)c1ccccc1Br` [Compound I-2-46], the “log P” value is reported as 2.04.

For `O=C(Nc1ccn(-c2cccc(F)c2F)n1)c1ccccc1C(F)(F)F` [Compound I-1-65], the “log P” value amounted to 3.13.

Take `Cc1cccnc1C(=O)Nc1ccn(-c2ccccc2Cl)n1` [Compound I-1-38]: the “log P” value came out at 3.24.

In the case of `O=C(Nc1ccn(-c2ccccc2Cl)n1)c1cccnc1I` [Compound I-1-369], the log partition coefficient (log P) was 2.27.

With `Cc1nn(-c2ncccc2Cl)nc1N(C(=O)c1ccccc1I)C(=O)c1ccccc1I` [Compound I-2-61], the lipophilicity (log P) is listed as 4.03.

Turning to `O=C(Nc1ccn(-c2c(F)cccc2F)n1)c1cccnc1OC(F)(F)F` [Compound I-1-250], the “log P” value worked out at 2.77.

Regarding `Cc1ncccc1C(=O)Nc1ccn(-c2ccccc2Cl)n1` [Compound I-1-41], the “log P” value is 1.44.

On to `O=C(Nc1nn(-c2ccccc2Cl)cc1Cl)c1ccccc1Cl` [Compound I-1-28], for which the “log P” value is on record as 2.88.

With `Cn1nc(C(F)(F)F)c(C#N)c1C(=O)Nc1ccn(-c2c(F)cccc2F)n1` [Compound I-1-318], the “log P” value was determined as 2.98.

`COc1ccccc1-n1ccc(NC(=O)c2c(F)cccc2F)n1` [Compound I-1-408]: the “log P” value was found to be 2.57.

For `O=C(Nc1ccn(-c2c(Cl)cccc2Cl)n1)c1cccnc1C(F)(F)F` [Compound I-1-124], the “log P” value amounted to 2.57.

On to `O=C(Nc1nn(-c2ccccc2Br)nc1Cl)c1ccccc1I` [Compound I-2-32], for which the lipophilicity (log P) is 3.24.

Consider `Cn1ncnc1C(=O)Nc1ccn(-c2c(F)cccc2F)n1` [Compound I-1-236], for which the “log P” value came to 1.93.

As to `Cn1nc(C(F)(F)C(F)(F)F)c(C(F)(F)F)c1C(=O)Nc1ccn(-c2ncc(F)cc2F)n1` [Compound I-1-450], the “log P” value turned out to be 3.65.

`O=C(Nc1ccn(-c2c(F)cccc2F)c1)c1cccnc1C(F)(F)F` [Compound I-3-5]: the “log P” value amounted to 2.52.

As for `C=CCN(C(=O)c1ccccc1C(F)(F)F)c1ccn(-c2ncc(F)cc2F)n1` [Compound I-1-469], the log partition coefficient (log P) stood at 3.38.

For the compound `O=C(Nc1nn(-c2ccccc2Cl)cc1I)c1ccccc1I` [Compound I-1-367], the “log P” value was found to be 3.18.

`O=C(Nc1ccn(-c2c(F)cccc2F)n1)c1ccccc1OC(F)F` [Compound I-1-247]: the “log P” value is 2.74.

Regarding `Cc1nc(C(F)(F)F)c(C(=O)Nc2ccn(-c3ncc(F)cc3F)n2)s1` [Compound I-1-497], the lipophilicity (log P) stood at 2.35.

`CC(C)N(C(=O)c1ccccc1C(F)(F)F)c1ccn(-c2c(F)cccc2F)n1` [Compound I-1-260]: the “log P” value is recorded as 3.50.

With `O=C(Nc1ccn(-c2ncc(F)cc2F)n1)c1ccccc1SC(F)(F)F` [Compound I-1-149], the “log P” value turned out to be 2.98.

Take `O=C(c1ccccc1Cl)N(C(=O)c1ccccc1Cl)c1nn(-c2ccccc2Br)nc1Cl` [Compound I-2-30]: the “log P” value amounted to 4.87.

Turning to `Cc1c([N+](=O)[O-])c(C(=O)Nc2ccn(-c3ncc(F)cc3F)n2)nn1C` [Compound I-1-448], the “log P” value is 1.83.

As to `Cc1nn(C)c(F)c1C(=O)Nc1ccn(-c2c(F)cccc2F)n1` [Compound I-1-110], the “log P” value amounted to 1.98.

For `O=C(Nc1ccn(-c2ncc(F)cc2F)n1)c1ccccc1Cl` [Compound I-1-143], the “log P” value is on record as 2.32.

With `O=C(Nc1cnn(-c2ncccc2F)n1)c1cccnc1Br` [Compound I-2-47], the “log P” value is 1.49.

Consider `CN(C(=O)c1ccccc1C(F)(F)F)c1ccn(-c2c(F)cccc2F)n1` [Compound I-1-253], for which the “log P” value stood at 3.08.

Consider `CCc1cc(NC(=O)c2ccccc2Cl)nn1-c1ccc(F)cc1F` [Compound I-1-213], for which the “log P” value amounted to 3.99.

For `N#Cc1cc(F)ccc1-n1ccc(NC(=O)c2cccnc2Cl)n1` [Compound I-1-631], the “log P” value turned out to be 1.91.

Take `Nc1cnn(-c2c(F)cccc2F)n1` [Ex. 21-IX, 2-(2,6-Difluorophenyl)-2H-1,2,3-triazole-4-amine]: the chromatographic logP was determined as 1.16.

Take `Cc1nn(C)c(C)c1C(=O)Nc1ccn(-c2c(F)cccc2F)n1` [Compound I-1-109]: the “log P” value is on record as 1.77.

For `Cn1cnnc1C(=O)Nc1ccn(-c2c(F)cccc2F)n1` [Compound I-1-328], the “log P” value came out at 1.51.

For `CCCc1c(Cl)c(C(=O)Nc2ccn(-c3c(F)cccc3F)n2)nn1C` [Compound I-1-314], the “log P” value is on record as 3.32.

Turning to `Cc1snnc1C(=O)Nc1ccn(-c2ncc(F)cc2F)n1` [Compound I-1-546], the “log P” value came to 2.15.

Regarding `O=C(Nc1ccn(-c2ncccc2Cl)n1)c1c(F)cccc1F` [Compound I-1-564], the log partition coefficient (log P) was 2.12.

In the case of `O=C(c1ccccc1C(F)(F)F)N(C(=O)c1ccccc1C(F)(F)F)c1nn(-c2ccccc2Br)nc1Cl` [Compound I-2-27], the lipophilicity (log P) turned out to be 4.87.

As to `O=C(Nc1ccn(-c2ncc(Cl)cc2F)n1)c1c(F)cccc1C(F)(F)F` [Compound I-1-591], the “log P” value was 2.98.

For `CCCn1ncc(I)c1C(=O)Nc1ccn(-c2c(F)cccc2F)n1` [Compound I-1-325], the “log P” value was found to be 3.11.

`O=C(Nc1ccn(-c2ncc(F)cc2F)n1)c1cccnc1I` [Compound I-1-495]: the log partition coefficient (log P) is on record as 1.79.

For the compound `Cn1nc(C(F)(F)F)c(Br)c1C(=O)Nc1ccn(-c2ncc(F)cc2F)n1` [Compound I-1-522], the “log P” value came to 3.19.

With `O=C(Nc1ccn(-c2ncccc2Br)n1)c1ccccc1C(F)(F)F` [Compound I-1-549], the “log P” value is recorded as 2.42.

For `Cc1noc(C(F)F)c1C(=O)Nc1ccn(-c2c(F)cccc2F)n1` [Compound I-1-106], the “log P” value stood at 2.53.

Regarding `O=C(Nc1ccn(-c2ccccc2[N+](=O)[O-])n1)c1ccccc1I` [Compound I-1-419], the “log P” value amounted to 2.61.

Turning to `O=C(Nc1ccn(-c2ncc(F)cc2F)n1)c1ccccc1OC(F)(F)F` [Compound I-1-463], the lipophilicity (log P) came out at 2.77.

Regarding `O=C(Nc1ccn(-c2ncccc2F)n1)c1c(F)cccc1F` [Compound I-1-132], the “log P” value was found to be 1.99.

For the compound `CCn1ncc(Cl)c1C(=O)Nc1ccn(-c2ncc(F)cc2F)n1` [Compound I-1-526], the log partition coefficient (log P) turned out to be 2.42.

Regarding `CCCn1cc(Cl)c(C(=O)Nc2ccn(-c3c(F)cccc3F)n2)n1` [Compound I-1-315], the lipophilicity (log P) came out at 3.05.

For `CCOc1c(Cl)cccc1-n1ccc(NC(=O)c2cccnc2C(F)(F)F)n1` [Compound I-1-395], the “log P” value came out at 3.21.

For the next data set, the system named is Cooperia curticei. In words: Cooperia curticei test (COOPCU). The following applies: application rate 4 ppm; nematode larvae; after 5 days. It is filed as in vivo. On the procedure:
Cooperia curticei Test (COOPCU)
Solvent: dimethyl sulphoxide
To produce a suitable preparation of active compound, 10 mg of active compound are mixed with 0.5 ml of dimethyl sulphoxide, and the concentrate is diluted with Ringer solution to the desired concentration.
Vessels containing the active compound preparation of the desired concentration are populated with about 40 nematode larvae (Cooperia curticei).
After 5 days, the kill in % is determined 100% means that all of the larvae have been killed; 0% means that none of the larvae have been killed.
Take `O=C(Nc1cnn(-c2ccccc2Br)n1)c1ccccc1Cl` [Compound I-2-7]: the “efficacy (kill)” value amounted to 80%.

Consider `O=C(Nc1ccn(-c2cccc(Cl)c2F)n1)c1ccccc1C(F)(F)F` [Compound I-1-555], for which the “efficacy (kill)” value is recorded as 90%.

Still in this data set, the particulars now being: application rate 100 ppm; nematode larvae; after 5 days.
Regarding `O=C(Nc1ccn(-c2ccc(F)cc2F)n1)c1ccccc1Cl` [Compound I-1-211], the “efficacy (kill)” value came out at 80%.

In the case of `CCN(C(=O)c1ccccc1Cl)c1ccn(-c2ccccc2Cl)n1` [Compound I-1-22], the “efficacy (kill)” value stood at 80%.

`O=C(Nc1ccn(-c2c(Cl)cccc2Cl)n1)c1ccccc1Cl` [Compound I-1-121]: the “efficacy (kill)” value came to 80%.
